Source: patent US20190010461A1, “HUMAN PLURIPOTENT STEM CELL-BASED SCREENING FOR SMOOTH MUSCLE CELL DIFFERENTIATION AND DISEASE” (Wisconsin Alumni Research Foundation, priority 2017, published 2019)

Key:
MYH11-Tom+ cells = assay: Flow cytometric analysis of MYH11-Tom+ cells in SMC differentiation; format: cell-based, human; details: RepSox 25 μM, day 12-24
Description: (§1) Data are represented as mean±standard deviation (SD). […] Scale bar=1 mm. […] Scale bar=50 μm. […] Data are represented as mean±SD. Student's t-test, *: P<0.05, n=3.
FIGS. 7A-7G show the target of RepSox. […] Cells were treated with RepSox (25 μM) or SiRNA. […] Cells were treated with RepSox (25 μM) or SiRNA. […] During the smooth muscle cells differentiation, cells were treated with or without RepSox from day 10-11. […] During the smooth muscle cells differentiation, cells were treated with RepSox for 1 or 20 hours at day 12. […] Cells were treated with RepSox and non-targeting control (NT)/SiRNA at day 10. The RNA was isolated at day 14.
Optimized smooth muscle cell differentiation—Human pluripotent stem cell cells (H1) were cultured in E8 medium on a […]™-coated plate. To achieve the best differentiation results, ES cells were split using EDTA at 1:4 ratios two days before the differentiation. The cells reached 80-90% confluency two days later. At the day of the differentiation, ES cells were dissociated by ACCUTASE™ (Invitrogen) for 3-5 min at 37 ° C. The cells were plated on a […]™-coated plate at 1:4 ratios (1×10^5 cells/cm2). […] An increased CHIR99021 concentration of 3 μM decreased cell proliferation at 36 hours but increased MYH11 expression. At 36 hours, the cells were passaged and seeded on a new […]™-coated plate (1.6×10^4 cells/cm2). The low cell density is critical for the differentiation. A cell density of 1.0-4.0×10^4 cells/cm2 for different cell lines can be tested, such that 100% cell confluence will be achieved at day 6, which gives rise to the best differentiation efficiency. The cells were treated with E6T medium (E8 medium minus FGF2 but still containing 1.7 ng/ml TGF-β1) for 18 hours to induce the transient and medium level expression of MEOX1. E5F medium (E8 medium minus insulin and TGF-β1, but still containing 100 ng/ml FGF2) was used to suppress MEOX1 expression for another 5 days (days 3-8). Next, the cells were treated with E6FVR medium (E6 medium with 100 ng/ml FGF2, 50 ng/ml VEGFA, and 5 μM RESV, a NOTCH agonist) to induce SMC progenitors from day 8-12. E6R (E6 medium+5 μM RESV) medium supplemented with RepSox (25 μM), was then used to further mature SMCs from day 12 to 24. Cells were split (1×10^5 cells/cm2) at day 16 and further differentiated until day 24. The cells can be cryopreserved at day 16 or day 24. For P-SMCs, T-SMCs, and PT-SMCs, RepSox was replaced by PDGF-BB (10 ng/ml), TGF-β1 (1.7 ng/ml), or combination of PDGF-BB and TGF-β1, respectively, from day 12 to 24. From day 0-4: medium was changed every day. From day 2-24: medium was changed every other day. For day 1 and day 8-24, 1.5×volumes of medium, compared to the normal volume used in the well, were used. […]

[1] = tested on: contractile and ECM genes (MYH11, SMTN, CNN1, ELN, ACTA2, TAGLN, COL1A1); assay: RT-qPCR of pluripotent stem cell-derived SMCs; format: cell-based, human; details: versus previous protocol (Cheung's LM-SMCs)
Excerpt: as §1
FIGS. 9A-9B show a comparison of MYH11 expression in RepSox-SMCs and Cheung's LM-SMCs. […] Data are normalized to Cheung's LM-SMCs and represented as mean±SD, n=3 for all the samples except fresh human artery (n=2). *, p<0.05, student t-test.
Optimized smooth muscle cell differentiation—Human pluripotent stem cell cells (H1) were cultured in E8 medium on a […]™-coated plate. To achieve the best differentiation results, ES cells were split using EDTA at 1:4 ratios two days before the differentiation. The cells reached 80-90% confluency two days later. At the day of the differentiation, ES cells were dissociated by ACCUTASE™ (Invitrogen) for 3-5 min at 37 ° C. The cells were plated on a […]™-coated plate at 1:4 ratios (1×10^5 cells/cm2). […] An increased CHIR99021 concentration of 3 μM decreased cell proliferation at 36 hours but increased MYH11 expression. At 36 hours, the cells were passaged and seeded on a new […]™-coated plate (1.6×10^4 cells/cm2). The low cell density is critical for the differentiation. A cell density of 1.0-4.0×10^4 cells/cm2 for different cell lines can be tested, such that 100% cell confluence will be achieved at day 6, which gives rise to the best differentiation efficiency. […]

NOTCH1 = tested on: NOTCH1
Description: Data are represented as mean±SD, n=3 biological replicates. *, p<0.05, student t-test. […] Cells were treated with RepSox (25 μM) or SiRNA. Comb3: Knockdown of TGFBR1, ACVR1B, and ACVR1C at the same time. Data are represented as mean±SD, n=2 biological replicates. *, p<0.05, student t-test. […] Cells were treated with RepSox (25 μM) or SiRNA. Data are represented as mean±SD, n=2 biological replicates. *, p<0.05, student t-test. […] During the smooth muscle cells differentiation, cells were treated with or without RepSox from day 10-11. […] During the smooth muscle cells differentiation, cells were treated with RepSox for 1 or 20 hours at day 12. […] Data are represented as mean±SD, n=3 biological replicates. *, p<0.05, student t-test. […] Cells were treated with RepSox and non-targeting control (NT)/SiRNA at day 10. The RNA was isolated at day 14.

intimal hyperplasia = tested on: intimal hyperplasia
Excerpt: FIG. 5A depicts the rat balloon injury experiment. H&E staining is shown. Arrowheads indicate the intima. Scale bar=200 μm. […] Scale bar=100 Neointima is highlighted. Red arrows indicate the region with high SMA expression. Yellow arrows indicate the region with low SMA expression. […] Red arrows indicate the region with high MYH11 expression. Yellow arrows indicate the region with low MYH11 expression. […] Red arrows indicate the region with high SM22α expression. Yellow arrows indicate the region with low SM22α expression. […] The “% of high expression”=ratio of “area of high expression”! “total area of intima and media”. Data are represented as mean±SD. […] Scale bar=100 μm. Neointima is highlighted.
Rat carotid artery balloon injury model and periadventitial delivery—This animal study was conducted with approval from the UW-Madison Department of Surgery Animal Care and Use Committee. Briefly, 2 mg (2 animals/group) or 10 mg (3 animals/group) of RepSox (or DMSO) dissolved in Regel (Tri-block gel) (Regel tri-block gel is described in Chen et al. “Unimolecular Micelle-Based Hybrid System for Perivascular Drug Delivery Produces Long-Term Efficacy for Neointima Attenuation in Rats,” Biomacromolecules, 2017 Jun. 14. doi: 10.1021/acs.biomac.7b00617) was applied to the outside of the injured artery segment immediately after balloon injury of the rat carotid artery. Two weeks post-surgery, arteries were collected and sectioned. The ratio of intima area versus media area and lumen area were measured by Image J.
We next examined the function of RepSox in a rat intimal hyperplasia model. In order to reduce any side effect induced by systematic drug delivery, RepSox or DMSO was dissolved in gel and then applied to the outside of the injured artery segment immediately after balloon injury of the rat carotid artery (Shi et al., 2014). Carotid arteries were collected and sectioned 14 days after surgery. […] To test the effect of RepSox, we performed qPCR analysis.

Cc1cccc(-c2n[nH]cc2-c2ccc3ncccc3n2)n1 [RepSox, RepSox (SJN 2511)]
efficiency of SMC differentiation (MYH11-tdTomato+) (MYH11-Tom+ cells): > 95% | improvement of MYH11 expression (RT-qPCR) [1]: 23 fold | RepSox treatment time after which increased NOTCH signaling could be detected (NOTCH1; RepSox for 1 or 20 hours at day 12): 1 h | full-length NOTCH1 and intracellular domain (NICD) expression (NOTCH1; treated with or without RepSox day 10-11): enhanced | intima/media ratio (intimal hyperplasia; 2 mg or 10 mg RepSox in gel periadventitially, 14 days after surgery, DMSO control 1.5): 0.5 | endothelia cell marker expression (qPCR) (intimal hyperplasia; injured rat carotid artery, versus DMSO): increased | apoptosis in intima (TUNEL) (intimal hyperplasia; versus DMSO): increased | expression of contractile proteins SMA, MYH11 and SM22α (intimal hyperplasia; versus DMSO): significantly increased | proliferation in intima and media layer (immunostaining) (intimal hyperplasia; versus DMSO): decreased proliferation in intima but not media layer
